This note sets out measurements from patent US20150291598A1 (NOVARTIS AG, priority 2012, published 2015).

This assay has as its system P. falciparum (NF54 or 3D7 strain). Put plainly: Assay for P. falciparum proliferation in infected human blood cells (SYBR Green). The conditions noted are these: Plasmodium falciparum, Erythrocyte. It is filed as cell-based, Plasmodium falciparum. As for the experimental part:
Assay for P. falciparum Proliferation in Infected Human Blood Cells
Compounds of the invention can be assayed to measure their capacity to inhibit proliferation of P. falciparum parasitemia in infected red blood cells. This parasite proliferation assay measures the increase in parasite DNA content using a DNA intercalating dye, SYBR Green® (INVITROGEN®) which has a high affinity for double stranded DNA.
NF54 or 3D7 P. falciparum strain is grown in complete culturing media until parasitemia reaches 3% to 8% with O+ human erythrocytes. […] 20 μl of screening media is dispensed into 384 well assay plates. 50 nl of compounds of the invention (in DMSO), including antimalarial controls (mefloquine, pyrimethamine and artemisinin), are then transferred into the assay plates, as well as DMSO alone to serve as a negative control for inhibition. Then 30 μl of a suspension of a NF54 or 3D7 P. falciparum infected erythrocytes in screening media is dispensed into the assay plates such that the final hematocrit is 2.5% with a final parasitemia of 0.3%. The plates are placed in a 37° C. incubator for 72 hours in a low oxygen environment containing 93% N2, 4% CO2, and 3% O2 gas mixture. 10 μl of lysis buffer (saponin, triton-X, EDTA) containing a 10× solution of SYBR Green I® in RPMI media is dispensed into the plates. The plates are lidded and kept at room temperature overnight for the lysis of the infected red blood cells. The fluorescence intensity is measured (excitation […], emission 530 nm) using the Envision™ system (Perkin Elmer).

Where [1] appears, read: 72 h, NF54 or 3D7 infected human erythrocytes, 72 hours, read-out: EC50 (nM), inhibitory efficacy in delaying P. falciparum proliferation in infected human blood cells.

Like-named read-outs stand apart in the source and are kept apart here. Some results are limits rather than exact numbers.

As for `CN(C(=O)c1cn2c(-c3cccc(-c4cn[nH]c4)c3)cnc2cn1)c1ccc(C#N)cc1` [Compound 46, N-(4-cyanophenyl)-N-methyl-3-[3-(1H-pyrazol-4-yl)phenyl]imidazo[1,2-a]pyrazine-6-carboxamide], under setting [1], the EC50 is > 10000 nM. Turning to `Cc1ccc(N(C)Cc2cn3c(-c4ccc(-c5ccn[nH]5)cc4)cnc3cn2)nc1` [Compound 47, N,5-dimethyl-N-({3-[4-(1H-pyrazol-5-yl)phenyl]imidazo[1,2-a]pyrazin-6-yl}methyl)pyridin-2-amine], the EC50 by setting is: under setting [1], 1240 nM; (infected human red blood cells, read-out: EC50, P. falciparum Proliferation Assay) < 50 nM. For the molecule `COc1cccc(-c2cnc3cnc(C(=O)N(C)c4ccc(C#N)cc4)cn23)c1` [Compound 48, N-(4-cyanophenyl)-3-(3-methoxyphenyl)-N-methylimidazo[1,2-a]pyrazine-6-carboxamide], the EC50 under setting [1] was found to be 5100 nM. On the same count and under the same terms, as for `CN(C(=O)c1cn2c(-c3ccc(C(F)(F)F)cc3)cnc2cn1)c1ccc(Cl)cc1Cl` [Compound 49, N-(2,4-dichlorophenyl)-N-methyl-3-[4-(trifluoromethyl)phenyl]imidazo[1,2-a]pyrazine-6-carboxamide], the figure is 314 nM; as for `CN(C(=O)c1cn2c(-c3ccc(C(F)(F)F)cc3)cnc2cn1)c1ccc(OC(F)F)cc1` [Compound 50, N-[4-(difluoromethoxy)phenyl]-N-methyl-3-[4-(trifluoromethyl)phenyl]imidazo[1,2-a]pyrazine-6-carboxamide], 828 nM.

Consider `CN(C(=O)c1cn2c(-c3ccc(C(F)(F)F)cc3)cnc2cn1)c1ccc(-c2cnn(C)c2)cc1` [Compound 51, N-methyl-N-[4-(1-methyl-1H-pyrazol-4-yl)phenyl]-3-[4-(trifluoromethyl)phenyl]imidazo[1,2-a]pyrazine-6-carboxamide], for which, under setting [1], the EC50 was > 9720 nM. On the same count and under the same terms, as for `CN(C(=O)c1cn2c(-c3ccc(C(F)(F)F)cc3)cnc2cn1)c1ccc(F)c(Br)c1` [Compound 52, N-(3-bromo-4-fluorophenyl)-N-methyl-3-[4-(trifluoromethyl)phenyl]imidazo[1,2-a]pyrazine-6-carboxamide], the figure is 187 nM; as for `CN(C(=O)c1cn2c(-c3ccc4c(cnn4C)c3)cnc2cn1)c1ccc(F)c(F)c1` [Compound 53, N-(3,4-difluorophenyl)-N-methyl-3-(1-methyl-1H-indazol-5-yl)imidazo[1,2-a]pyrazine-6-carboxamide], 12 nM. Still for that read-out and setting: as for `CN(C(=O)c1cn2c(-c3ccc(C(F)(F)F)cc3)cnc2cn1)c1cccnc1F` [Compound 54, N-(2-fluoropyridin-3-yl)-N-methyl-3-[4-(trifluoromethyl)phenyl]imidazo[1,2-a]pyrazine-6-carboxamide], the figure is > 9280 nM; as for `CN(C(=O)c1cn2c(-c3ccc(C(F)(F)F)cc3)cnc2cn1)c1ccc(Cl)c(Cl)c1` [Compound 55, N-(3,4-dichlorophenyl)-N-methyl-3-[4-(trifluoromethyl)phenyl]imidazo[1,2-a]pyrazine-6-carboxamide], 160 nM. Take `Cc1cc(N(C)C(=O)c2cn3c(-c4ccc(C(F)(F)F)cc4)cnc3cn2)ccc1Cl` [Compound 56, N-(4-chloro-3-methylphenyl)-N-methyl-3-[4-(trifluoromethyl)phenyl]imidazo[1,2-a]pyrazine-6-carboxamide]: the EC50 under setting [1] is 491 nM. Same read-out and setting: to `CN(C(=O)c1cn2c(-c3ccc(C(F)F)cc3)cnc2cn1)c1ccc(C#N)cc1` [Compound 57, N-(4-cyanophenyl)-3-[4-(difluoromethyl)phenyl]-N-methylimidazo[1,2-a]pyrazine-6-carboxamide] belongs 70 nM. Still for that read-out and setting: to `CN(C(=O)c1cn2c(-c3ccc(C(F)(F)F)cc3)cnc2cn1)c1ccc(Br)nc1` [Compound 58, N-(6-bromopyridin-3-yl)-N-methyl-3-[4-(trifluoromethyl)phenyl]imidazo[1,2-a]pyrazine-6-carboxamide] belongs 1140 nM; to `COc1cc(Cl)ccc1N(C)C(=O)c1cn2c(-c3ccc(C(F)(F)F)cc3)cnc2cn1` [Compound 59, N-(4-chloro-2-methoxyphenyl)-N-methyl-3-[4-(trifluoromethyl)phenyl]imidazo[1,2-a]pyrazine-6-carboxamide], 35 nM. `CN(C(=O)c1cn2c(-c3ccc(Cl)c(C(F)(F)F)c3)cnc2cn1)c1ccc(C#N)cc1` [Compound 60, 3-[4-chloro-3-(trifluoromethyl)phenyl]-N-(4-cyanophenyl)-N-methylimidazo[1,2-a]pyrazine-6-carboxamide]: the EC50 under setting [1] was 2630 nM. The same measure, in the same setting: as for `Cc1ccc(-c2cnc3cnc(C(=O)N(C)c4ccc(Cl)cc4Cl)cn23)cc1` [Compound 61, N-(2,4-dichlorophenyl)-N-methyl-3-(4-methylphenyl)imidazo[1,2-a]pyrazine-6-carboxamide], the figure is 1370 nM; as for `CN(Cc1cn2c(-c3ccc4c(cnn4C)c3)cnc2cn1)c1ccc(C#N)cc1` [Compound 62, 4-[methyl({[3-(1-methyl-1H-indazol-5-yl)imidazo[1,2-a]pyrazin-6-yl]methyl})amino]benzonitrile], 82 nM; as for `CN(C(=O)c1cn2c(-c3ccc(C(F)(F)F)cc3)cnc2cn1)c1ccc(F)cn1` [Compound 63, N-(5-fluoropyridin-2-yl)-N-methyl-3-[4-(trifluoromethyl)phenyl]imidazo[1,2-a]pyrazine-6-carboxamide], 387 nM. Still for that read-out and setting: as for `CN(Cc1cn2c(-c3ccc(OC(F)F)cc3)cnc2cn1)c1ccc(Cl)cc1` [Compound 64, 4-chloro-N-({3-[4-(difluoromethoxy)phenyl]imidazo[1,2-a]pyrazin-6-yl}methyl)-N-methylaniline], the figure is 116 nM; as for `COc1ccc(-c2cnc3cnc(C(=O)N(C)c4ccc(C#N)cc4)cn23)c(F)c1` [Compound 65, N-(4-cyanophenyl)-3-(2-fluoro-4-methoxyphenyl)-N-methylimidazo[1,2-a]pyrazine-6-carboxamide], 354 nM. The same measure, in the same setting: as for `CN(C(=O)c1cn2c(-c3ccc(C(F)(F)F)cc3)cnc2cn1)c1cncc(F)c1` [Compound 66, N-(5-fluoropyridin-3-yl)-N-methyl-3-[4-(trifluoromethyl)phenyl]imidazo[1,2-a]pyrazine-6-carboxamide], the figure is 5000 nM.

Take `COc1ccc(-c2cnc3cnc(C(=O)N(C)c4ccc(C#N)cc4)cn23)cc1` [Compound 67, N-(4-cyanophenyl)-3-(4-methoxyphenyl)-N-methylimidazo[1,2-a]pyrazine-6-carboxamide]: the EC50 under setting [1] is 168 nM. On the same count and under the same terms, as for `CN(C(=O)c1cn2c(-c3ccc(C(F)(F)F)cc3)cnc2cn1)c1ccc(-c2nnn(C)n2)cc1` [Compound 68, N-methyl-N-[4-(2-methyl-2H-1,2,3,4-tetrazol-5-yl)phenyl]-3-[4-(trifluoromethyl)phenyl]imidazo[1,2-a]pyrazine-6-carboxamide], the figure is > 10000 nM; as for `COc1ccc(-c2cnc3cnc(C(=O)N(C)c4ccc(F)cc4)cn23)cc1` [Compound 69, N-(4-fluorophenyl)-3-(4-methoxyphenyl)-N-methylimidazo[1,2-a]pyrazine-6-carboxamide], 85 nM. The same measure, in the same setting: to `CN(C(=O)c1cn2c(-c3ccc(Cl)cc3)cnc2cn1)c1ccc(Cl)cc1Cl` [Compound 70, 3-(4-chlorophenyl)-N-(2,4-dichlorophenyl)-N-methylimidazo[1,2-a]pyrazine-6-carboxamide] belongs 230 nM.
